Columns and labels:
[1] = system: rat Cerebellar Granular Cells (CGC); test: Cell viability (MTT) of CGC exposed to IAPP 20-29 monomer or aggregated; type: cell-based
Method: The solutions fragment of IAPP 20-29 (MM 1029 Da) are prepared in PBS buffer (100 mM, pH 7.4; NaCl 100 mM). Monomeric peptide concentration was 5.8 mM and the aggregation peptide was 32.6 μM in DMSO. Protein concentration is calculated using the calibration curve.
Chaperonin: solutions of chaperonin B and D (25 μM), selected as non-limiting examples of Formula I, are prepared in 1.2 mL of DMSO and dilute with the buffer to obtain a final volume of […]. Curcumin (5.5 mM) used as reference compound was prepared in ethanol. (Yang, F. et al. in J. Biol Chem 2005, 280, 5892-5901). […]
In particular, in this invention, the viability of CGC cell cultures was assessed with the 20-29 fragment of IAPP, in its monomeric and aggregated form or with the mixtures of protein:chaperonin at different molar ratios. Briefly, in all samples of CGC, half of the volume of medium is removed to add, independently, the quantities of tested protein or mixtures of peptide:chaperonin with different molar ratios (1:0.3 or 1:1). […]
In FIG. 12, the results of the assessment of cell viability was observed by MTT assay, which were analyzed by the one-way ANOVA statistical test, followed by a posteriori LSD test (LSD for its acronym in English Least Significant Difference).

[2] = Tubis et al. 1960; cited from earlier work

Row | SMILES | CGC viability with IAPP monomer plus reference compound versus monomer alone ([1]; IAPP 20-29 monomer, 20 hours, p>0.05) | CGC viability with aggregated IAPP 20-29 plus compound versus aggregated fragment alone ([1]; aggregated form of IAPP 20-29, 20 hours) | Fraction able to cross the blood brain barrier (BBB) [2]
1 | COc1cc(/C=C/C(=O)CC(=O)/C=C/c2ccc(O)c(OC)c2)ccc1O [curcumin] | no significant differences | marked cytoprotective effect | –
2 | Nc1c(/N=N/c2ccc(-c3ccc(/N=N/c4cc(S(=O)(=O)O)c5ccccc5c4N)cc3)cc2)cc(S(=O)(=O)O)c2ccccc12 [CR, Congo Red] | – | – | 0.03%
